Assay results as given in article PMC9585585, “Discovery of Small-Molecule Allosteric Inhibitors of PfATC as Antimalarials” (Journal of the American Chemical Society, 2022).
Where “and” joins values, the source holds several entries; their conditions need not be identical. Identical values can stand only once. Like-named read-outs stand apart in the source and are kept apart here.

Tests used:
PfATC [1] = biological target: T1, PfATC (Plasmodium falciparum, UniProt A0A5K1K910); assay: Differential scanning fluorimetry (DSF); assay type: binding; conditions: PfATC 5 µM, read-out: ΔTM of PfATC (thermal stabilization)
T1 sequence (A0A5K1K910 entry or part of it): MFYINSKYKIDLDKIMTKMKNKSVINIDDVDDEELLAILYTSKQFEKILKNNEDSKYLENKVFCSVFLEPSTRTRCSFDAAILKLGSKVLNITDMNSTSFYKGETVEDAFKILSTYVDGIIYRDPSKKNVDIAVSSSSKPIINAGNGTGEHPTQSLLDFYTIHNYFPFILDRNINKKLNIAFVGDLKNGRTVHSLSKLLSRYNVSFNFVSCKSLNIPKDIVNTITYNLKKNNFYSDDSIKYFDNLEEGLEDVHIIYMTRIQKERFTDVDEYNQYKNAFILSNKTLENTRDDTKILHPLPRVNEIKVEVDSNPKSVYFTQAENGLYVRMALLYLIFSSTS
From the text: (§1) 464Data collection, processing and refinement. All the diffraction data sets were collected using
(§2) 465synchrotron radiation wavelength 1.033200 Å at DESY beamline P11. The data collected for
(§3) 466PfATC crystals grown in presence of fragments and compounds were processed using XDSAPP 25
(§4) 467and Aimless 26, and the structures were solved and initially refined using the DIMPLE pipeline
(§5) 468within CCP4 suite 26 with coordinates of the unliganded PfATC (5ILQ) as a starting model. The
(§6) 469final refinement included manual rebuilding in coot 27 and Refmac5 28. The resulting crystal
(§7) 470structures were deposited in PDB 29. Data collection and processing statistics are show in Table
(§8) 472Differential Scanning Fluorimetry (DSF). The purified PfATC was incubate with 5000 × Sypro
(§9) 473Orange (Invitrogen) and dilution it to 1:400 stock of dye in assay buffer (50 mM Tris-HCl pH =8.0
(§10) 474and 300 mM NaCl). Each reaction consisted of 2 µL compound (10 mM stock in 100% DMSO), 5
(§11) 475µL PfATC-Sypro orange mixture and 43 µL assay buffer. Final protein assay concentration was
(§12) 4765µM, final DMSO concentration war […]. After incubation for 20 min at 20 ℃, the samples
(§13) 477were hated from 25℃ to 95℃ at a rate of 0.5 ℃ min -1. The inflection points of the melting curves
(§14) 478were determined using BioRad CSV 96 control software and processed & plotted by GraphPad.
(§15) 479Microscale Thermophoresis (MST). […]

HepG2 cells = assay: Cytotoxicity on cultured human HepG2 cells; assay type: cell-based; conditions: at a concentration of 100 μM
PfATC [2] = biological target: T1, PfATC; assay: Microscale thermophoresis (MST); assay type: binding; conditions: n = 3
From the text: as §1, §2, §3, §4, §5, §6, §7, §8, §9, §10, §11, §12, §13, §14, §15

P. falciparum 3D7 = assay: Growth-inhibition assay of P. falciparum (SYBR Green I); assay type: cell-based, Plasmodium falciparum; conditions: P. falciparum 3D7, 96 h, read-out: EC50 against blood stage 3D7 cultures
Description: 488Cell culture and growth-inhibition assay of P. falciparum. P. falciparum 3D7 parasites
489(Wellcome Trust Dundee) were maintained in continuous culture at 37 °C and an atmosphere
490consisting of 90% N 2, 5% O2, and 5% CO2 as described previously 30 with modifications.31
491Parasites were maintained in 25 mM 4-(2-hydroxyethyl)-1-piperazineethanesulfonic acid (HEPES)
492and 11.9 mM sodium bicarbonate buffered RPMI 1640 medium supplemented with D-glucose
493(11 mM), hypoxanthine, AlbuMAX-I (0.5% w/v), and 10 µg/mL gentamicin. 0+ blood was
494provided by “Hospital Novo Atibaia” (Brazil) in agreement with the ethics committee at ICB-USP.
495Compounds were tested for their inhibitory effect against P. falciparum 3D7 conducting SYBR
496Green I (Invitrogen) drug assays as reported. 32, 33 Briefly, two-fold serial dilutions of compounds
497were prepared in 96-well plates starting from 100 and 20 µM in technical triplicate and incubated
498for 96 h under normal growth conditions using an initial parasitemia of 0.5% and a hematocrit of
4992% in a volume of 100 µL per well. Parasite proliferation was measured by quantifying DNA via
500SYBR Green I emitted fluorescence in the wells after addition of 100 µL lysis buffer supplemented
501with SYBR Green I (0.02% v/v) and incubation for 1 h at room temperature in the dark.
502Fluorescence was quantified using a CLARIOstar plate reader (BMG Labtech, Germany) at
503excitation and emission wavelength bands of 485 (± 9) and 530 (± 12) nm, respectively. Focal and
504gain adjustment was performed using the negative controls (highest expected fluorescence signal).
505Data was acquired via the CLARIOstar (V5.20) and MARS software, manually normalized, and
506plotted using the nonlinear regression curve fit implemented in GraphPad Prism as described below
507in more detail. Non-treated parasites, highest solvent concentration on parasites, and highest drug
508concentration in medium were used as controls for maximal growth, solvent control, and native
509drug fluorescence, respectively.
511Nonlinear regression fit and analysis of dose-response drug assays. Nonlinear regression as
512implemented in GraphPad Prism 8.4.3 (log(inhibitor) vs. response – Variable slope (four
513parameters)) was used to fit the measured data to interpolate the IC 50 value from the curve. No
514specific model was applied. Data was pre-processed by min-max-scaling according to the
517where y is the fluorescence signal in each well, y minimum the background fluorescence, and ymaximum
518the highest measured fluorescence signal in the untreated wells. Drug concentrations (in µM) were
519transformed to the log(10)of the values. Means of each independent experiment were plotted as
520individual values, and the SD of the mean from the means shown as error bars. The test for
521homoscedasticity was performed to confirm if no weighting of values was appropriate.

[3] = Insolubility interpreted from deviation of the MST curve; assay type: physicochemical; conditions: pH 8, aqueous with cosolvent or surfactant or cyclodextrin, kinetic from dmso stock, MST buffer, read-out: concentration in excess of which the compound is insoluble
Description: We also modified the amino group and generated a new scaffold, suspecting that varying the R1, R2, and R3 groups would generate a series of compounds with optimized binding and improved inhibition (BDAs, Supporting Information Table 1). We evaluated the BDA series in an in vitro activity assay against malarial and human ATC (Figure 3A, Supporting Information Table 1). […] Significant deviations from the sigmoidal distribution of the MST curve are present at concentrations higher than 10 μM, which we have interpreted as indicative of BDA-04 insolubility at concentration in excess of 10 μM. To characterize the mechanism of inhibition by BDAs, enzyme activity assays were performed using BDA-04 as an exemplar (Figure 3F,G).
as §1, §2, §3, §4, §5
469final refinement included manual rebuilding in coot 27 and Refmac5 28. The resulting crystal […]
478were determined using BioRad CSV 96 control software and processed & plotted by GraphPad. […]

Row | ΔTm (PfATC [1]) | Kd (PfATC [2]) | EC50 (P. falciparum 3D7) | EC50 (P. falciparum 3D7; Plasmodium falciparum, 3D7, 96 h) | solubility at 10 min [3] | SMILES | cytotoxic effect on cultured human HepG2 cells (HepG2 cells)
1 | 22.8 °C | 66.3 nM | 2430 nM | 2400 nM | > 10 µM | CC(C)(C)OC(=O)Nc1sc(-c2ccccc2)cc1C(=O)NCCc1ccccc1 [BDA-04] | no cytotoxic effect
2 | – | – | 3400 nM and 3370 nM | – | – | CC(C)(C)OC(=O)Nc1sc(-c2ccccc2)cc1C(=O)NCCc1ccc(O)cc1 [BDA-11] | –
3 | – | – | 2000 nM and 2030 nM | – | – | COc1cccc(CCNC(=O)c2cc(-c3ccccc3)sc2NC(=O)OC(C)(C)C)c1 [BDA-24] | –

Row | SMILES | ΔTm (PfATC [1]) | Kd (PfATC [2]) | EC50 (P. falciparum 3D7) | EC50 (P. falciparum 3D7; Plasmodium falciparum, 3D7, 96 h) | solubility at 10 min [3] | cytotoxic effect on cultured human HepG2 cells (HepG2 cells)
4 | CC(C)(C)OC(=O)Nc1sc(-c2ccccc2)cc1C(=O)NCCO [BDA-14] | – | – | 42500 nM | – | – | –
